Calls of active or inactive are those of the source.
Columns and labels:
[1] = biological target: T1, Tyrosine-protein phosphatase non-receptor type 5 (Homo sapiens, UniProt P54829); test: STEP phosphatase inhibitors, confirmation, biochemical, fluorescence intensity, uHTS hits (AID 602372); assay type: functional; conditions: read-out: IC50_Mean
T1 sequence (P54829 whole entry): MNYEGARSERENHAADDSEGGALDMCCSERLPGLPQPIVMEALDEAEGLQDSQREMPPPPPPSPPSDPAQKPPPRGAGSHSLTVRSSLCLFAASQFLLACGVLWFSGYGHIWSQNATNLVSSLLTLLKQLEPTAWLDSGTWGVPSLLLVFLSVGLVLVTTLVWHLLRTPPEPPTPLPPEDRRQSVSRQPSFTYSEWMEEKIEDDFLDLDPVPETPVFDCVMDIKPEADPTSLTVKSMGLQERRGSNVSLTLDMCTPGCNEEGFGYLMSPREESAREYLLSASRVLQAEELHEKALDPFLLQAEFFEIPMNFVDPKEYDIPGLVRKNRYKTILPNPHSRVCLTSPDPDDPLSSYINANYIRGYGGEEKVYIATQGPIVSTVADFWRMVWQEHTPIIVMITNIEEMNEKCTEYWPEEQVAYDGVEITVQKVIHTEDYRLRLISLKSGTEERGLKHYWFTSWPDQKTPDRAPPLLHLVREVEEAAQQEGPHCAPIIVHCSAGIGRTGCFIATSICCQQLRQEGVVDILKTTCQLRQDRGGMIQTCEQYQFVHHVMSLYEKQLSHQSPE

[2] = biological target: Dual specificity protein phosphatase 3 (Homo sapiens, UniProt P51452); test: VHR phosphatase inhibition, dose response, selectivity assay for STEP inhibitor project, biochemical (AID 602374); assay type: functional; conditions: read-out: IC50_Mean
Sequence of Dual specificity protein phosphatase 3 (P51452 whole entry): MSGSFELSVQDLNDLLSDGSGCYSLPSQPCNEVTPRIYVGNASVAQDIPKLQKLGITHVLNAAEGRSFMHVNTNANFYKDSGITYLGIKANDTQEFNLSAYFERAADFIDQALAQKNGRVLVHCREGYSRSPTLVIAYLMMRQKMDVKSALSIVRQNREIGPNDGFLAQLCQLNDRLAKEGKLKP

[3] = biological target: T2, Tyrosine-protein phosphatase non-receptor type 11 (Homo sapiens, UniProt Q06124); test: SHP2 phosphatase inhibition, dose response, selectivity assay for STEP inhibitor project, biochemical (AID 602367); assay type: functional; conditions: read-out: IC50_Mean
T2 sequence (Q06124 whole entry): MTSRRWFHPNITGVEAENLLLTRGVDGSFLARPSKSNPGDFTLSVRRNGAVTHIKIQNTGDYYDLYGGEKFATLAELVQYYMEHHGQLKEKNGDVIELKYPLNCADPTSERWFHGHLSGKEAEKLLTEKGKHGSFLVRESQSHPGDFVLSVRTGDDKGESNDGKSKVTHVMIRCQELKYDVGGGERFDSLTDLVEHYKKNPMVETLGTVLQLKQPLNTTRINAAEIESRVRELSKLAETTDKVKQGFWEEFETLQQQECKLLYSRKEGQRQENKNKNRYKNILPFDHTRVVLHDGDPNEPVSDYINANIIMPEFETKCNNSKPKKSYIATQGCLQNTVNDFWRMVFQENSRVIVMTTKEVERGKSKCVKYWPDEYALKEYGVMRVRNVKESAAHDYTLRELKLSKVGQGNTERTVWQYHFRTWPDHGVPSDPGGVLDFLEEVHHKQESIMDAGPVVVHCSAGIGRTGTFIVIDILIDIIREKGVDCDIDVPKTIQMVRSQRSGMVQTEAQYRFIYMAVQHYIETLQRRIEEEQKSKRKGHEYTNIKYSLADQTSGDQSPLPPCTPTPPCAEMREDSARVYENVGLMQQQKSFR

[4] = biological target: T3, Carboxy-terminal domain RNA polymerase II polypeptide A small phosphatase 1 (Homo sapiens, UniProt Q9GZU7); test: inhibitors of CTDSP1, concentration-response testing, biochemical assay, absorbance-based, actives from ultra-high-throughput screening (AID 540297); assay type: functional
T3 sequence (Q9GZU7 whole entry): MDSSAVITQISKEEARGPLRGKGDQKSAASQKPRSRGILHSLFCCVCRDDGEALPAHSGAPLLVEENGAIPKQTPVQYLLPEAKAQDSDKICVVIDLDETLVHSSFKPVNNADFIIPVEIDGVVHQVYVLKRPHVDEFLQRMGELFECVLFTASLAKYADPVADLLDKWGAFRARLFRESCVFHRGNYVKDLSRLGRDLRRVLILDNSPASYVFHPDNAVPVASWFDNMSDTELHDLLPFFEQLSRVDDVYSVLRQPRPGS

[5] = biological target: T4, Tyrosine-protein phosphatase non-receptor type 22 (Homo sapiens, UniProt Q9Y2R2); test: PTPN22 phosphatase inhibition, dose response, selectivity assay for STEP inhibitor project, biochemical (AID 624241); assay type: functional
T4 sequence (Q9Y2R2 whole entry): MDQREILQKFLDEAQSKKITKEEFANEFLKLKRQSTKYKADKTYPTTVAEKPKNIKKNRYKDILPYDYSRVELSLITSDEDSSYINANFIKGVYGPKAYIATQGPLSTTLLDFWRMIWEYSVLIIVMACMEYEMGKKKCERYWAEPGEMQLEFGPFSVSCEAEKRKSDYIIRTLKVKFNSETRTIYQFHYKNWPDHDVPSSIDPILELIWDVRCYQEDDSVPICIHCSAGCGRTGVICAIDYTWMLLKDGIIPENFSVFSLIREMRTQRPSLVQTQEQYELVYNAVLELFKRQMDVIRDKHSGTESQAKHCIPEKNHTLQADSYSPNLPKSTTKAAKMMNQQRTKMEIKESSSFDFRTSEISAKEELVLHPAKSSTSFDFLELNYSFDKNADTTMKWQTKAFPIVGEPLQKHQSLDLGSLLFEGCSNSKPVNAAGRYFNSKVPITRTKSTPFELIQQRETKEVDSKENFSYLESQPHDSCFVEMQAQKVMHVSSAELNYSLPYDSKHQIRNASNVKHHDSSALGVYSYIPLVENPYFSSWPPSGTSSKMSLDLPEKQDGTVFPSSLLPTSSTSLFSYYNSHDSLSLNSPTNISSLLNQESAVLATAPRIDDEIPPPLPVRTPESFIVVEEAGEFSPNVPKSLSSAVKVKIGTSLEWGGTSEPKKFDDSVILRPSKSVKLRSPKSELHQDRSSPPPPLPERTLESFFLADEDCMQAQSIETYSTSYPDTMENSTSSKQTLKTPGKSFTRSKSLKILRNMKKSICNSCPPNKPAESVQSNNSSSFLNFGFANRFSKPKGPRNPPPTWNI

[6] = biological target: T5, Histone-lysine N-methyltransferase NSD2 (Homo sapiens, UniProt O96028); assay type: biochemical
T5 sequence (O96028 whole entry): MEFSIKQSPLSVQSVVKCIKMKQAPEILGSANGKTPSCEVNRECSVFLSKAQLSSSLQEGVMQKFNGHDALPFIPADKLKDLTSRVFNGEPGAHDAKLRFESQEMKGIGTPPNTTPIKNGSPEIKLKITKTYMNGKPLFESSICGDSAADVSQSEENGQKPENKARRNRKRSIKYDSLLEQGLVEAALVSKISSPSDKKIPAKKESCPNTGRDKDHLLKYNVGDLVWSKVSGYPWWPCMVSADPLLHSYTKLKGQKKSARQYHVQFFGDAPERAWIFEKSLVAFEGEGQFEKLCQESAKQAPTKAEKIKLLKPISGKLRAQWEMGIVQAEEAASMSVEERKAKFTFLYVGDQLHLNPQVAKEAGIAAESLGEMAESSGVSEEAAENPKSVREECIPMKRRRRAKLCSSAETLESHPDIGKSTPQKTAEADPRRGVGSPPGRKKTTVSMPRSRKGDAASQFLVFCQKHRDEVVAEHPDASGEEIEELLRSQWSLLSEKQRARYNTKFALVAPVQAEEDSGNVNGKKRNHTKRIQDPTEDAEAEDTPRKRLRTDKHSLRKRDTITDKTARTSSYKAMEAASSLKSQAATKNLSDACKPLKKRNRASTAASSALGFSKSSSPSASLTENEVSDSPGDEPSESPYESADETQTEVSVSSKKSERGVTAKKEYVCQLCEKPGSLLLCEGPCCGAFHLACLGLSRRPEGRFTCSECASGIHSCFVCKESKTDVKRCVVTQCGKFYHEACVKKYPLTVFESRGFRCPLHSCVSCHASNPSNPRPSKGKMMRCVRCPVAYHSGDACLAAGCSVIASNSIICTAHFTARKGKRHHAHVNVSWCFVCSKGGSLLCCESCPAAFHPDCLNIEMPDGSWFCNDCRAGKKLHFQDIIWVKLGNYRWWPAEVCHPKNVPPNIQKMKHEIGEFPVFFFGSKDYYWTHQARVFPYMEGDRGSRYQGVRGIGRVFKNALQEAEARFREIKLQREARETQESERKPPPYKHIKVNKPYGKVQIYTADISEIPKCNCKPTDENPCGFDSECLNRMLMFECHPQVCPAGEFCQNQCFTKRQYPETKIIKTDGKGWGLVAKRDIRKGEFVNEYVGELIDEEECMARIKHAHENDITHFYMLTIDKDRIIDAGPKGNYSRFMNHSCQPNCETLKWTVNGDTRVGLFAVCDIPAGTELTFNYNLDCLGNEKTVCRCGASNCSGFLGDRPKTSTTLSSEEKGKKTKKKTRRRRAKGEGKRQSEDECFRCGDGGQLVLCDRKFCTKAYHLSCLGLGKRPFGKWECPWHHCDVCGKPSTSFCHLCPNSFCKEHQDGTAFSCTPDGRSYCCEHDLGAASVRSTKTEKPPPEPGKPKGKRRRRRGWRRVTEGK

[7] = biological target: T6, Zinc finger protein mex-5 (Caenorhabditis elegans, UniProt Q9XUB2); test: MEX-5/TCR-2 RNA interaction inhibitors, dose response, biochemical, C. elegans, fluorescence polarization (AID 1960)
T6 sequence (Q9XUB2 whole entry): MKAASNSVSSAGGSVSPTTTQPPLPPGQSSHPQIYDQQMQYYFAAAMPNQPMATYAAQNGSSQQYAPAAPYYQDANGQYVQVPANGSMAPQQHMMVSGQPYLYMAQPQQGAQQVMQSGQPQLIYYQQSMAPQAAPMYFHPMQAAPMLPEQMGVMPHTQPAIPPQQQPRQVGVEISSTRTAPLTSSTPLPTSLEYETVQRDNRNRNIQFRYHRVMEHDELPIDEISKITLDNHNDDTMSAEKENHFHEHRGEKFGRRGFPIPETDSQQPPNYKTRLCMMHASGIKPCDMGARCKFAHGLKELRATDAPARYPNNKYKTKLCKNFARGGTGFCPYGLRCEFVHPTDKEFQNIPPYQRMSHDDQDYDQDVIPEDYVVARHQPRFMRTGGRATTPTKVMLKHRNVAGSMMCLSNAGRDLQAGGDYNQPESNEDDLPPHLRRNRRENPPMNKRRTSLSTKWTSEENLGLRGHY

[8] = biological target: T7, RNA-binding protein pos-1 (Caenorhabditis elegans, UniProt G5EF15); test: inhibitors of POS-1/mex-3 RNA binding, dose response, biochemical, fluorescence polarization (AID 1964);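 note: purified POS-1 fused to maltose binding protein made in E. coli; potency of compounds blocking POS-1 binding to fluorescent RNA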
T7 sequence (G5EF15 whole entry): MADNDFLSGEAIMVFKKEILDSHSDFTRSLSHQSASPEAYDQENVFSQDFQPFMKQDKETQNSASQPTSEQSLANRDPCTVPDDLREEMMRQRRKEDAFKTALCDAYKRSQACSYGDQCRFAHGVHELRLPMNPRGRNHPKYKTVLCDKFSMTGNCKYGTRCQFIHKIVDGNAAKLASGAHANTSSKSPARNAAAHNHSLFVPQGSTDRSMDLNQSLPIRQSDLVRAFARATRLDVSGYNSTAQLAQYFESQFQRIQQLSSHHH

[9] = biological target: T8, Protein disulfide-isomerase (Homo sapiens, UniProt P07237); test: PDI inhibitors, insulin turbidity readout, dose response, biochemical, absorbance, cherry-picked samples, set 2 (AID 624274); assay type: functional
T8 sequence (P07237 whole entry): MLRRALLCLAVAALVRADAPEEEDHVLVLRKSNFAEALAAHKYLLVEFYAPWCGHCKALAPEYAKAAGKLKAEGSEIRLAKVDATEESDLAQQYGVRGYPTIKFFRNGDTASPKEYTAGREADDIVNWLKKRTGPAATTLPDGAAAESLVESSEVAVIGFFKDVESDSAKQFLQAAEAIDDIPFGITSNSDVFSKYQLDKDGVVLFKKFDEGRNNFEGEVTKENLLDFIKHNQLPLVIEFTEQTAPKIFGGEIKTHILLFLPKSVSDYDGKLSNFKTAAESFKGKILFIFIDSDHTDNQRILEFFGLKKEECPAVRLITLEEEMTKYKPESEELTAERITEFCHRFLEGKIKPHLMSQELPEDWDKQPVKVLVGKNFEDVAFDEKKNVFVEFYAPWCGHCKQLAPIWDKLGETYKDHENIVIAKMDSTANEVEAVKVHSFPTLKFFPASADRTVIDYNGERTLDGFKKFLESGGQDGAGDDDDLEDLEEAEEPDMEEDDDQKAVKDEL

Leucine aminopeptidase = biological target: T9, Leucine aminopeptidase (Plasmodium falciparum 3D7, UniProt Q8IL11); test: P. falciparum M17LAP inhibitors, primary screen, biochemical, fluorogenic H-Leu-NHMec substrate, 1536-well (AID 1619); assay type: functional
T9 sequence (Q8IL11 whole entry): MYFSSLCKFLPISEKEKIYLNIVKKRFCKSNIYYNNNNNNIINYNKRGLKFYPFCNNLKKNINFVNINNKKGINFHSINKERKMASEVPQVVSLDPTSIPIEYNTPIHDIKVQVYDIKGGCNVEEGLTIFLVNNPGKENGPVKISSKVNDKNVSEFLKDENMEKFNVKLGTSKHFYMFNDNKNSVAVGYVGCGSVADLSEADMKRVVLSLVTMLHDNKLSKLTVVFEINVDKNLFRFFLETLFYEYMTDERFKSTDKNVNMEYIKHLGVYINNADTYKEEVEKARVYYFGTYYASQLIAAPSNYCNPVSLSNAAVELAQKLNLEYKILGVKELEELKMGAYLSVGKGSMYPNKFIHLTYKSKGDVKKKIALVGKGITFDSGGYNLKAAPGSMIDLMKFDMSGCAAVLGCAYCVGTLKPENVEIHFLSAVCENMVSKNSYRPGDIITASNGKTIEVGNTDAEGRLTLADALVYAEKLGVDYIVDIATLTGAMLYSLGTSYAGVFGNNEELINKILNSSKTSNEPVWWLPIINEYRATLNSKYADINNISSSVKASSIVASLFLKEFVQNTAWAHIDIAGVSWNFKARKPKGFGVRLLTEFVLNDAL

ORF 73 = ORF 73 (Human herpesvirus 8, UniProt O40947); test: inhibitors of C-LANA binding to LBS DNA, dose response, biochemical, fluorescence polarization, cherry-picked samples (AID 504725); parameters: species or system Human gammaherpesvirus 8;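 note: fluorescence polarization of a labeled DNA duplex reporting LANA DNA binding; potency is for inhibitors that block LANA binding to the DNA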
Sequence of ORF 73 (O40947 whole entry): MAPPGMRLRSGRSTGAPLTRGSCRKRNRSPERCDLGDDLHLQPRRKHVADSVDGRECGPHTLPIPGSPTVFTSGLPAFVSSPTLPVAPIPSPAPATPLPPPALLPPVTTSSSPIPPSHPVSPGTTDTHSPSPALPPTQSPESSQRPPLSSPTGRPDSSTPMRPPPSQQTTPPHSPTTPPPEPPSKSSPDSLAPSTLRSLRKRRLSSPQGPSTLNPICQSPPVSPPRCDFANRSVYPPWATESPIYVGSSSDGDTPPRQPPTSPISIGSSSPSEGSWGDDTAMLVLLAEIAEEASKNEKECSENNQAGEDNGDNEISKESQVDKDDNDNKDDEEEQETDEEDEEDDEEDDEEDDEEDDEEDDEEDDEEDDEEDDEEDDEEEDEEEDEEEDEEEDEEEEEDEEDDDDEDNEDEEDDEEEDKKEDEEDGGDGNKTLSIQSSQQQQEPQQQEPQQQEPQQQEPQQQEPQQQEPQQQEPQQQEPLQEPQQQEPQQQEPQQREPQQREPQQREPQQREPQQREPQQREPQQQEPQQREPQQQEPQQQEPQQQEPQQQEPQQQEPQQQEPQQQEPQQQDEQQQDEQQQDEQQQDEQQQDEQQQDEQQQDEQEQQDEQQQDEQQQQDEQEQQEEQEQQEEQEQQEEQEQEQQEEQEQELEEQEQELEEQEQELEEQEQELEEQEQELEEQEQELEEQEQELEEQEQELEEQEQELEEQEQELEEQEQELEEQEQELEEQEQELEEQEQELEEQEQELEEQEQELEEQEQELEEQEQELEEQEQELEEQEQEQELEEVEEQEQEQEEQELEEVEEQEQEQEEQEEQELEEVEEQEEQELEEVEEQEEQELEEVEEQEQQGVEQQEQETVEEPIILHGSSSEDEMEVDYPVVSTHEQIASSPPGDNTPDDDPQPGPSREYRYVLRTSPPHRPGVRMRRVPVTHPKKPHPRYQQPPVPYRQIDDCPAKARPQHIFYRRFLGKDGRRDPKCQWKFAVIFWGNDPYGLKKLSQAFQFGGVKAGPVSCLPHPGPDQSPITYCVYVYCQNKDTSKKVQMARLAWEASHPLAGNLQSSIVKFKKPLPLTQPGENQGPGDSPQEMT

[10] = biological target: T8, Protein disulfide-isomerase; test: PDI inhibitors, insulin aggregation turbidity, dose response, biochemical, absorbance, cherry-picked samples (AID 602350); assay type: functional

IC50 [1] | IC50 [2] | IC50 [3] | IC50 [4] | IC50 [5] | AC50 [6] | EC50 [7] | EC50 [8] | AC50 [9] | IC50 (Leucine aminopeptidase) | AC50 (ORF 73) | AC50 [10] | Compound
16.9 µM (active) | 4.31 µM (active) | 5.27 µM (active) | 8.49 µM (active) | 60.2 µM (inactive) | – | – | – | – | – | – | – | COc1ccc2cc3c(N)nn(C(=O)c4cccc(F)c4)c3nc2c1
– | – | – | – | – | 7.35 µM (active) | 61.6 µM (active) | 270 µM (active) | 0.009 µM (active) | 12.8 µM (active) | 2.89 µM (active) | < 0.009 µM (active) | O=C(O)CCCCCn1c(SCC(=O)c2ccc(O)c(O)c2)nc2ccsc2c1=O

— ChEMBL document CHEMBL1201862, “PubChem BioAssay data set” (2004)
